# Structures can show the parent of a compound that is named as a salt.
# Legend:
# physchem = details: 66% dimethylformamide-water
# solubility = format: physicochemical
# Escherichia coli 0127 = assay: Bauer-Kirby disc diffusion, zone of inhibition; format: cell-based
# Escherichia coli EC 25 = assay: Bauer-Kirby disc diffusion, zone of inhibition; format: cell-based
# Proteus sp. PR6 = assay: Bauer-Kirby disc diffusion, zone of inhibition; format: cell-based
# Proteus sp. PR7 = assay: Bauer-Kirby disc diffusion, zone of inhibition; format: cell-based
# [1] = test system: Klebsiella-Aerobacter KA 14; assay: Bauer-Kirby disc diffusion, zone of inhibition; format: cell-based
# [2] = test system: Klebsiella-Aerobacter KA 25; assay: Bauer-Kirby disc diffusion, zone of inhibition; format: cell-based
# Pseudomonas sp. Ps 24 = assay: Bauer-Kirby disc diffusion, zone of inhibition; format: cell-based
# Pseudomonas sp. Ps 30 = assay: Bauer-Kirby disc diffusion, zone of inhibition; format: cell-based
# [3] = test system: Staphylococcus aureus 3055; assay: Bauer-Kirby disc diffusion, zone of inhibition; format: cell-based
# [4] = test system: Staphylococcus aureus 3074; assay: Bauer-Kirby disc diffusion, zone of inhibition; format: cell-based
# [5] = test system: Ascaris lumbricoides var. suum; assay: anthelmintic evaluation in mice by treated feed, separate factors (Example 13); format: in vivo; details: 0.05 percent in diet, control 2.66
# Description: The feeds were utilized as diets for separate groups of mice, five mice per group. About twelve hours after initiation of the feeding, the mice were infected with Ascaris lumbricoides var. suum ova. Another group of five mice was fed the non-medicated feed to serve as a control but was similarly infected at the same time with Ascaris lumbricoides var. suum. All groups were fed their respective feed and maintained under normal laboratory conditions for a period of eight days, at which time all mice were taken off feed. On the ninth day, all mice were sacrificed and the lungs examined to determine the presence, and if present, numbers, of lesions of Ascaris lumbricoides var. suum.
# In a further evaluation, the monoammonium salts of A16886I and A16886II were separately evaluated for the control of Ascaris lumbricoides var. suum. The evaluations were conducted in accordance with the procedure reported in Example 11 at a concentration in the diet of 0.05 percent.
# Salmonella typhosa SA 12 = assay: Bauer-Kirby disc diffusion, zone of inhibition; details: Salmonella enterica
# Description: (§2) The evaluation was made on the monoammonium salts of separated factors I and II.
# Salmonella typhosa SA 16 = assay: Bauer-Kirby disc diffusion, zone of inhibition; details: Salmonella enterica
# Description: as §2
# Xanthomonas vesicatoria = assay: field trial on tomato plants, bacterial spot control (Example 9); format: in vivo
# Protocol: (§1) A mixture of the monoammonium salt of A16886I and the monoammonium salt of A16886II was tested under field conditions for the control of Xanthomonas vesicatoria (bacterial spot) on mature bearing tomato plants. The mixture of the two salts was dispersed in water at a concentration of 100, 200, or 400 parts per million and applied to the plants at the rate of 75 gallons per acre. Application was made with a CO2 sprayer at 50 psi. Plants were sprayed twice, on successive days; after the second spray had dried, all plants were wounded by sand blasting and then within one minute the plants were inoculated with a bacterial inoculum of Xanthomonas vesicatoria. Three days later, a third spray application of the aqueous formulation of A16886 was made. Readings were made one week and two weeks after the last spray treatment. Controls consisted of groups of plants (1) sand blasted and inoculated; (2) sand blasted only; (3) untreated; and (4) treated with streptomycin (on the same three-day spraying schedule, at a concentration of 100, 200, or 400 parts per million of aqueous solution, using a rate of 75 gallons per acre), sand blasted, and inoculated. The results were as set forth in the following table, in which crop injury is reported on a scale of 0-10, with 0 = no injury and 10 = dead plants; and control of bacterial spot is reported on a percentage basis.
# tomato plants = assay: field trial on tomato plants, crop injury (Example 9); format: in vivo; details: 0 = no injury, 10 = dead plants
# Protocol: as §1
smiles,measurement,setting,value
COC1(NC(=O)CCCC(N)C(=O)O)C(=O)N2C(C(=O)O)=C(COC(N)=O)CSC21 (stereo not drawn) [A16886I hydrochloride],pKa,"physchem; pH 5, pK'a1",3.6
same,pKa,"physchem; pH 5, pK'a2",5.2
same,pKa,"physchem; pH 5, pK'a3",10.8
"NC(=O)OCC1=C(C(=O)O)N2C(=O)C(NC(=O)CCCC(N)C(=O)O)[C@H]2SC1 (stereo partly drawn) [A16886II, 7-(5-amino-5-carboxyvaleramido)-3-(carbamoyloxymethyl)-3-cephem-4-carboxylic acid]",solubility in acetonitrile and other organic solvents,solubility; acetonitrile and other organic solvents,essentially insoluble
same,solubility in lower alkanols,solubility; lower alkanols,slightly soluble
same,solubility in water,solubility; water,very soluble
same,zone of inhibition at 0.5 µg/disc,Escherichia coli 0127; 0.5 μg./disc,0 mm
same,zone of inhibition at 1 µg/disc,Escherichia coli 0127; 1.0 μg./disc,0 mm
same,zone of inhibition at 2.5 µg/disc,Escherichia coli 0127; 2.5 μg./disc,9.4 mm
same,zone of inhibition at 5 µg/disc,Escherichia coli 0127; 5 μg./disc,12.9 mm
same,zone of inhibition at 10 µg/disc,Escherichia coli 0127; 10 μg./disc,15.9 mm
same,zone of inhibition at 30 µg/disc,Escherichia coli 0127; 30 μg./disc,19.7 mm
same,zone of inhibition at 0.5 µg/disc,"Escherichia coli EC 25; EC25, 0.5 μg./disc",0 mm
same,zone of inhibition at 1 µg/disc,"Escherichia coli EC 25; EC25, 1.0 μg./disc",0 mm
same,zone of inhibition at 2.5 µg/disc,"Escherichia coli EC 25; EC25, 2.5 μg./disc",0 mm
same,zone of inhibition at 5 µg/disc,"Escherichia coli EC 25; EC25, 5 μg./disc",0 mm
same,zone of inhibition at 10 µg/disc,"Escherichia coli EC 25; EC25, 10 μg./disc",7.7 mm
same,zone of inhibition at 30 µg/disc,"Escherichia coli EC 25; EC25, 30 μg./disc",11.9 mm
same,zone of inhibition at 0.5 µg/disc,Proteus sp. PR6; 0.5 μg./disc,0 mm
same,zone of inhibition at 1 µg/disc,Proteus sp. PR6; 1.0 μg./disc,0 mm
same,zone of inhibition at 2.5 µg/disc,Proteus sp. PR6; 2.5 μg./disc,10.4 mm
same,zone of inhibition at 5 µg/disc,Proteus sp. PR6; 5 μg./disc,13.6 mm
same,zone of inhibition at 10 µg/disc,Proteus sp. PR6; 10 μg./disc,16.7 mm
same,zone of inhibition at 30 µg/disc,Proteus sp. PR6; 30 μg./disc,22.2 mm
same,zone of inhibition at 0.5 µg/disc,Proteus sp. PR7; 0.5 μg./disc,0 mm
same,zone of inhibition at 1 µg/disc,Proteus sp. PR7; 1.0 μg./disc,0 mm
same,zone of inhibition at 2.5 µg/disc,Proteus sp. PR7; 2.5 μg./disc,0 mm
same,zone of inhibition at 5 µg/disc,Proteus sp. PR7; 5 μg./disc,0 mm
same,zone of inhibition at 10 µg/disc,Proteus sp. PR7; 10 μg./disc,0 mm
same,zone of inhibition at 30 µg/disc,Proteus sp. PR7; 30 μg./disc,7.1 mm
same,zone of inhibition at 0.5 µg/disc,[1]; 0.5 μg./disc,0 mm
same,zone of inhibition at 1 µg/disc,[1]; 1.0 μg./disc,0 mm
same,zone of inhibition at 2.5 µg/disc,[1]; 2.5 μg./disc,0 mm
same,zone of inhibition at 5 µg/disc,[1]; 5 μg./disc,10.8 mm
same,zone of inhibition at 10 µg/disc,[1]; 10 μg./disc,13.7 mm
same,zone of inhibition at 30 µg/disc,[1]; 30 μg./disc,20.1 mm
same,zone of inhibition at 0.5 µg/disc,[2]; 0.5 μg./disc,0 mm
same,zone of inhibition at 1 µg/disc,[2]; 1.0 μg./disc,0 mm
same,zone of inhibition at 2.5 µg/disc,[2]; 2.5 μg./disc,0 mm
same,zone of inhibition at 5 µg/disc,[2]; 5 μg./disc,7.4 mm
same,zone of inhibition at 10 µg/disc,[2]; 10 μg./disc,10.1 mm
same,zone of inhibition at 30 µg/disc,[2]; 30 μg./disc,15.6 mm
same,zone of inhibition at 0.5 µg/disc,"Pseudomonas sp. Ps 24; SP.PS24, 0.5 μg./disc",0 mm
same,zone of inhibition at 1 µg/disc,"Pseudomonas sp. Ps 24; SP.PS24, 1.0 μg./disc",0 mm
same,zone of inhibition at 2.5 µg/disc,"Pseudomonas sp. Ps 24; SP.PS24, 2.5 μg./disc, * = satellite colonies within zone (Factor II)",9.3 mm
same,zone of inhibition at 5 µg/disc,"Pseudomonas sp. Ps 24; SP.PS24, 5 μg./disc, * = satellite colonies within zone (Factor II)",12.3 mm
same,zone of inhibition at 10 µg/disc,"Pseudomonas sp. Ps 24; SP.PS24, 10 μg./disc",15.4 mm
same,zone of inhibition at 30 µg/disc,"Pseudomonas sp. Ps 24; SP.PS24, 30 μg./disc",20.2 mm
same,zone of inhibition at 0.5 µg/disc,"Pseudomonas sp. Ps 30; SP.PS30, 0.5 μg./disc",0 mm
same,zone of inhibition at 1 µg/disc,"Pseudomonas sp. Ps 30; SP.PS30, 1.0 μg./disc",0 mm
same,zone of inhibition at 2.5 µg/disc,"Pseudomonas sp. Ps 30; SP.PS30, 2.5 μg./disc",0 mm
same,zone of inhibition at 5 µg/disc,"Pseudomonas sp. Ps 30; SP.PS30, 5 μg./disc",0 mm
same,zone of inhibition at 10 µg/disc,"Pseudomonas sp. Ps 30; SP.PS30, 10 μg./disc",0 mm
same,zone of inhibition at 30 µg/disc,"Pseudomonas sp. Ps 30; SP.PS30, 30 μg./disc",0 mm
same,zone of inhibition at 0.5 µg/disc,[3]; 0.5 μg./disc,0 mm
same,zone of inhibition at 1 µg/disc,[3]; 1.0 μg./disc,0 mm
same,zone of inhibition at 2.5 µg/disc,[3]; 2.5 μg./disc,0 mm
same,zone of inhibition at 5 µg/disc,[3]; 5 μg./disc,0 mm
same,zone of inhibition at 10 µg/disc,[3]; 10 μg./disc,0 mm
same,zone of inhibition at 30 µg/disc,[3]; 30 μg./disc,12.4 mm
same,zone of inhibition at 0.5 µg/disc,[4]; 0.5 μg./disc,0 mm
same,zone of inhibition at 1 µg/disc,[4]; 1.0 μg./disc,0 mm
same,zone of inhibition at 2.5 µg/disc,[4]; 2.5 μg./disc,0 mm
same,zone of inhibition at 5 µg/disc,[4]; 5 μg./disc,0 mm
same,zone of inhibition at 10 µg/disc,[4]; 10 μg./disc,0 mm
same,zone of inhibition at 30 µg/disc,[4]; 30 μg./disc,10.1 mm
same,Average Number of Lung Lesions Per Group,[5],0.20
same,pKa,"physchem; pH 6.8, pK'a1",4
same,pKa,"physchem; pH 6.8, pK'a2",5.3
same,pKa,"physchem; pH 6.8, pK'a3",9.2
same,pKa,"physchem; pH 6.8, pK'a4",10.5
same,pKa,"physchem; pH 7.7, pK'a1",4.4
same,pKa,"physchem; pH 7.7, pK'a2",5.7
same,pKa,"physchem; pH 7.7, pK'a3",9.6
same,pKa,"physchem; pH 7.7, pK'a4",10.4
same,zone of inhibition at 0.5 µg/disc,Salmonella typhosa SA 12,0 mm
same,zone of inhibition at 1 µg/disc,Salmonella typhosa SA 12,7.5 mm
same,zone of inhibition at 2.5 µg/disc,Salmonella typhosa SA 12,12.3 mm
same,zone of inhibition at 5 µg/disc,Salmonella typhosa SA 12,15.6 mm
same,zone of inhibition at 10 µg/disc,Salmonella typhosa SA 12,18.7 mm
same,zone of inhibition at 30 µg/disc,Salmonella typhosa SA 12,23.8 mm
same,zone of inhibition at 0.5 µg/disc,Salmonella typhosa SA 16,0 mm
same,zone of inhibition at 1 µg/disc,Salmonella typhosa SA 16,0 mm
same,zone of inhibition at 2.5 µg/disc,Salmonella typhosa SA 16,7.5 mm
same,zone of inhibition at 5 µg/disc,Salmonella typhosa SA 16,11 mm
same,zone of inhibition at 10 µg/disc,Salmonella typhosa SA 16,13.4 mm
same,zone of inhibition at 30 µg/disc,Salmonella typhosa SA 16,19.3 mm
[H]/N=C(/N)N[C@H]1[C@H](O)[C@@H](O)[C@H](O[C@@H]2O[C@@H](C)[C@](O)(C=O)[C@H]2O[C@@H]2O[C@@H](CO)[C@H](O)[C@@H](O)[C@@H]2NC)[C@@H](N/C(N)=N\[H])[C@@H]1O [Streptomycin],Percent Bacterial Spot Control,"Xanthomonas vesicatoria; 100 parts/million, first reading (one week)",83%
same,Percent Bacterial Spot Control,"Xanthomonas vesicatoria; 100 parts/million, second reading (two weeks)",57%
same,Percent Bacterial Spot Control,"Xanthomonas vesicatoria; 200 parts/million, first reading (one week)",81%
same,Percent Bacterial Spot Control,"Xanthomonas vesicatoria; 200 parts/million, second reading (two weeks)",37%
same,Percent Bacterial Spot Control,"Xanthomonas vesicatoria; 400 parts/million, first reading (one week)",83%
same,Percent Bacterial Spot Control,"Xanthomonas vesicatoria; 400 parts/million, second reading (two weeks)",59%
same,Crop Injury Ratings,"tomato plants; 100 parts/million, first reading",0
same,Crop Injury Ratings,"tomato plants; 100 parts/million, second reading",0
same,Crop Injury Ratings,"tomato plants; 200 parts/million, first reading",0
same,Crop Injury Ratings,"tomato plants; 200 parts/million, second reading",0
same,Crop Injury Ratings,"tomato plants; 400 parts/million, first reading",0
same,Crop Injury Ratings,"tomato plants; 400 parts/million, second reading",0
